Results taken from article PMC5793130, “The Peptide PnPP-19, a Spider Toxin Derivative, Activates μ-Opioid Receptors and Modulates Calcium Channels” (Toxins, 2018).

Assays:
[1] = tested on: μ-opioid receptors; settings: cited from earlier work
[2] = tested on: calcium channels in dorsal root ganglion (DRG) neurons; assay type: cell-based; settings: rat DRG neurons
Protocol: Intact neurons of rat dorsal root ganglia (DRG) were used for whole-cell patch-clamp recordings.
DRGs were isolated from adult Wistar rats (200 ± 300 g) and neurons cultured as described by Lindsay (1988) [35] with minor modifications. The neurons were isolated and washed by gravity in phosphate-buffered saline (PBS). The cells were than incubated with collagenase type IV (sigma, St. Louis, MO, USA) solution (5 mL of Dulbecco’s modified Eagle’s medium—DMEM; 10% v/v fetal bovine serum; penicillin 200 units/mL—streptomycin 200 μg/mL; 12.5 mg of collagenase type IV) for 90 min at 37 °C. After that, ganglions were washed 3 times by gravity in PBS and trypsin solution (2500–6000 BAEE U/ML, sigma, St. Louis, MO, USA) was added. In order to dissociate the DRG neurons, the ganglions were taken up and down with the use of a fine tipped transfer pipette. Cells were then incubated with the trypsin solution for 10 min at 37 °C. After the incubation period, 1 mL of bovine serum albumin (BSA) solution (16% v/v in PBS) was added and cells were more firmly dissociated. The cell suspension was added on the top of 3 mL BSA solution and centrifuged at 500× g for 6 min. The supernatant was discarded and the pellet was resuspended in complete media (DMEM media; 10% v/v fetal bovine serum; 1% v/v penicillin/streptomycin; 0.1% v/v NGF). […]

[3] = tested on: μ-opioid receptor-β-arrestin2 association; experiment: BiFC β-arrestin2 recruitment in HEK293T cells; assay type: cell-based; settings: HEK293T coexpressing μ-opioid receptor-Yc and β-arrestin2-Yn; 10^−10 M–10^−4 M, 60 min, 37 °C; normalized by 10 μM DAMGO (100%); n = 5
Protocol: HEK293T were cultured in DMEM (Sigma-Aldrich) supplemented with 10% v/v fetal bovine serum. […] To analyze whether activation of μ-opioid receptor would induce recruitment of β-arrestin2, the Bimolecular fluorescence complementation (BiFC) based detection of μ-opioid receptor-β-arrestin2 association was conducted. The cells were seeded at 33,000 cells/well onto poly (D-lysine)-coated Greiner 655,090 imaging plates. Plates were kept in a humidified incubator at 37 °C filled with 5% CO2 for 24 h. […] After that, cells were fixated with 3% paraformaldehyde in PBS for 10 min at room temperature. Then, cells were washed once with PBS and the cell nuclei were stained for 15 min with H33342 (2 μg/mL in PBS, Sigma, St. Louis, MO, USA). H33342 was then removed by a final PBS wash. Images (4 central sites/well) were acquired automatically on the IX Ultra confocal plate reader, using 405 nm/488 nm laser lines for H33342 and complemented YFP excitation, respectively. Data was analyzed by the use of MetaXpress software (version 5.3, Sunnyvale, CA, USA, 2013) as described by Liu and co-authors [38] and normalized by 10 μM of DAMGO (100%).

C[C@@H](Cc1ccsc1)NC(=O)NC[C@H](Cc1ccc(O)cc1)N(C)C [PZM21]
β-arrestin2 recruitment [1]: minimal β-arrestin2 recruitment

C=CCN1CC[C@]23c4c5ccc(O)c4O[C@H]2C(=O)CC[C@@]3(O)[C@H]1C5 [naloxone]
effect of naloxone alone on calcium current density ([2]; 10 μM naloxone): no significant effect on the current density
effect of naloxone pre-incubation on PnPP-19 inhibition of calcium current ([2]; 10 μM naloxone for 30 min, then 1 μM PnPP-19): completely blocks the activity of PnPP-19

[D-Ala^2, MePhe^4, Gly-ol^5] encephalin [DAMGO]
β-arrestin2 recruitment [3]: could clearly induce β-arrestin2 recruitment
